Measurements as given in patent US20210077479A1, “FORMULATIONS OF PIMAVANSERIN” (ACADIA Pharmaceuticals Inc., priority 2017, published 2021).

Assays:
[1] = system: DOI ((±)-2,5-dimethoxy-4-iodoamphetamine, a serotonin agonist) induced head twitches; details: rat, oral doses of 3 and 10 mg/kg; cited from earlier work
[2] = Bulk density according to USP <616>, method 1; format: physicochemical
Excerpt: (§1) Can's Index compares the difference between the bulk density and tapped density of a substance to determine its compressibility. The bulk density and the Carr's Index may be determined in accordance with USP<616> (method for performing Bulk and Tapped Densities, method 1) and USP<1174> (definition of powder flow) respectively.
The bulk density of the blended composition is >0.4 g/ml, such as 0.4-0.6 g/ml, such as about 0.5 g/ml determined according to USP <616>, method 1. In some embodiments the bulk density of the composition is >0.4 g/ml, such as about 0.5 g/ml, such as 0.51 g/ml, such as 0.508 g/ml.
The bulk density of pimavanserin granulation is >0.4 g/ml, such as 0.4-0.6 g/ml, such as about 0.5 g/ml, determined according to USP <616>, method 1. In some embodiments the bulk density of the pimavanserin granulation is >0.4 g/ml, such as about 0.5 g/ml, such as 0.51 g/ml, such as 0.508 g/ml.

[3] = Laser light scattering particle size analysis (Malvern Mastersizer 2000); format: physicochemical; details: FIG. 4 / FIG. 5
Excerpt: The small quantity of water, its application using appropriate water atomization and/or water application rate are important reasons for the improved properties of pimavanserin. […] The actual amount of water to be sprayed at the granulation of pimavanserin may vary from batch to batch (depending on surrounding factors such as humidity, temperature, exact properties of the API batch, etc) but is still consider to be a small amount, e.g. 3-10% w/w based on the dry ingredients. The amount of water and the granulation process disclosed herein is controlled by controlling the impeller energy to achieve the targeted impeller speed. The appropriate impeller speed ensures sufficient mixing and controls the growth of granules. The specific small amount of water needed for each batch is controlled by the power consumption (amperage) of the granulator, i.e., if the amperage is […], additional amounts of water could be sprayed to the granulate in order to obtain pimavanserin having the properties desired in order to pharmaceutically manufacture capsules comprising 5-34 mg pimavanserin. […] The properties are achieved via a manufacturing process that includes granulation, using a suitable granulator, e.g. a high shear granulator, simultaneously spraying the adequate amount of water while mixing, followed by screening, and blending appropriate quantities of excipients. […]

[4] = Carr's Index (Carr's Compressibility Index), USP <616>/<1174>; format: physicochemical
Procedure: as §1
Table 1 visualizes that filling of a capsule, in particular a capsule of size 3 or 4 (capsule volumes of 0.30 and 0.21 ml respectively, approximately […] and 85 mg respectively at a bulk density of 0.5 g/ml). As evident from Table 1, native pimavanserin (API) would be challenging for a size 3 capsule and not possible for a capsule of size 4 without improving the bulk density (as comparison 85 mg of pimavanserin granulation would require about 0.17 ml compared to 0.29 nil for the native API) and flowability (Carr index is frequently used in pharmaceutical manufacturing as an indication of the flowability of a powder, e.g. 2016 U.S. Pharmacopoeia-National Formulary [USP 35 NF 30]).

Bulk density according to USP <616> [2]	volume required for 85 mg ([2]; 85 mg of powder, from bulk density) [mL]	particle size distribution D90 [3]	Carr's Index [4]	Compound	activity against DOI induced head twitches [1]
–	–	–	–	CC(C)COc1ccc(CNC(=O)N(Cc2ccc(F)cc2)C2CCN(C)CC2)cc1 [Pimavanserin, N-(1-methylpiperidin-4-yl)-N-(4-fluorophenylmethyl)-N′-(4-(2-methylpropyloxy)phenylmethyl)carbamide]	effective
0.294 (n = 2) g/ml	0.29	about 30 μm	36 (n = 2)	pimavanserin tartrate [Native API]	–
